According to ChEMBL document CHEMBL1158720, “Ambigol C and 2,4-dichlorobenzoic acid, natural products produced by the terrestrial cyanobacterium Fischerella ambigua” (J Nat Prod, 2005):
≈ marks a conversion by molar mass, not a printed value. Calls of active or inactive are those of the source. The rule behind the calls is not given here.

Legend:
Escherichia coli = assay: Antimicrobial activity against Escherichia coli at 50 ug/filter disk; assay type: functional
[Chlorella] fusca = Antimicrobial activity against Chlorella fusca at 50 ug/filter disk; assay type: functional, Scenedesmus fuscus
Fusarium oxysporum = assay: Antimicrobial activity against Fusarium oxysporum at 50 ug/filter disk; assay type: functional
Mycotypha microspora = assay: Antimicrobial activity against Mycotypha microspora at 50 ug/filter disk; assay type: functional
L6 = assay: Cytotoxicity against rat L6 cells; assay type: functional
Priestia megaterium = assay: Antimicrobial activity against Bacillus megaterium at 50 ug/filter disk; assay type: functional
[1] = tested on: Mycobacterium tuberculosis; assay: Antimicrobial activity against Mycobacterium tuberculosis; assay type: functional
Microbotryum violaceum = assay: Antimicrobial activity against […] at 50 ug/filter disk; assay type: functional
[2] = tested on: Aspergillus pseudoglaucus; assay: Antimicrobial activity against Eurotium repens at 50 ug/filter disk; assay type: functional
[3] = tested on: Trypanosoma brucei rhodesiense; assay: Antitrypanosomal activity against Trypanosoma brucei rhodesiense trypomastigotes; assay type: functional
Biomphalaria glabrata = assay: Molluscicidal activity against Biomphalaria glabrata at 100 ug/ml; assay type: functional, organism-based
Plasmodium falciparum [4] = assay: Antiplasmodial activity against chloroquine-resistant Plasmodium falciparum K1; assay type: functional, organism-based
Plasmodium falciparum [5] = assay: Antiplasmodial activity against chloroquine-sensitive Plasmodium falciparum NF54; assay type: functional, organism-based
Trypanosoma cruzi = assay: Antitrypanosomal activity against Trypanosoma cruzi trypomastigotes; assay type: functional

SMILES | Activity (Escherichia coli) | inhibition zone (IZ) ([Chlorella] fusca) | inhibition zone (IZ) (Fusarium oxysporum) | inhibition zone (IZ) (Mycotypha microspora) | MIC (L6) | inhibition zone (IZ) (Priestia megaterium) | MIC [1] | inhibition zone (IZ) (Microbotryum violaceum) | inhibition zone (IZ) [2] | MIC [3] | Activity (Biomphalaria glabrata) | IC50 (Plasmodium falciparum [4]) | IC50 (Plasmodium falciparum [5]) | MIC (Trypanosoma cruzi) | Activity ([Chlorella] fusca; Scenedesmus fuscus) | Activity (Fusarium oxysporum) | Activity (Mycotypha microspora) | Activity [2] | inhibition zone (IZ) (Escherichia coli)
Oc1c(Cl)cc(Cl)cc1-c1c(Cl)cc(Cl)c(Oc2ccc(Cl)cc2Cl)c1O [AMBIGOL A] | inactive | 3 mm | 8 mm | 4 mm | 33 µg/mL (≈ 68 µM) | 8 mm | 64 µg/mL (≈ 132 µM) | 7 mm | 7 mm | 33 µg/mL (≈ 68 µM) | Active | 0.846 µg/mL (≈ 1.74 µM) | 1.62 µg/mL (≈ 3.35 µM) | 33 µg/mL (≈ 68 µM) |  |  |  |  | 
Oc1c(Cl)c(Oc2ccc(Cl)cc2Cl)cc(Oc2ccc(Cl)cc2Cl)c1Cl [AMBIGOL C] | inactive |  |  |  | 100 µg/mL (≈ 206 µM) | 7 mm | > 128 µg/mL | 5 mm |  | 11 µg/mL (≈ 22.7 µM) | inactive | 1.54 µg/mL (≈ 3.17 µM) | 2.5 µg/mL (≈ 5.15 µM) | 100 µg/mL (≈ 206 µM) | inactive | inactive | inactive | inactive | 
C[C@@H]1CC[C@H]2[C@@H](C)C(=O)O[C@@H]3O[C@@]4(C)CC[C@@H]1[C@]32OO4 [ARTEMISININ] |  |  |  |  |  |  |  |  |  |  |  | 0.001 µg/mL (≈ 0.00354 µM) | 0.003 µg/mL (≈ 0.0106 µM) |  |  |  |  |  | 
Nc1nc(N)nc(Nc2ccc([As]3SCC(CO)S3)cc2)n1 (configuration not stated) [MELARSOPROL] |  |  |  |  |  |  |  |  |  | 0.011 µg/mL |  |  |  | 0.011 µg/mL |  |  |  |  | 
Clc1ccc(COC(Cn2ccnc2)c2ccc(Cl)cc2Cl)c(Cl)c1 (configuration not stated) [MICONAZOLE] |  | 20 mm | 20 mm | 20 mm |  | 20 mm |  | 20 mm | 20 mm |  |  |  |  |  |  |  |  |  | 20 mm
CO[C@H]1/C=C/O[C@@]2(C)Oc3c(C)c(O)c4c(O)c(c(/C=N/N5CCN(C)CC5)c(O)c4c3C2=O)NC(=O)/C(C)=C\C=C\[C@H](C)[C@H](O)[C@@H](C)[C@@H](O)[C@@H](C)[C@H](OC(C)=O)[C@@H]1C [RIFAMPIN] |  |  |  |  |  |  | 0.125 µg/mL (≈ 0.152 µM) |  |  |  |  |  |  |  |  |  |  |  | 
CN[C@@H]1[C@H](O[C@H]2[C@H](O[C@H]3[C@H](O)[C@@H](O)[C@H](N=C(N)N)[C@@H](O)[C@@H]3N=C(N)N)O[C@@H](C)[C@]2(O)C=O)O[C@@H](CO)[C@H](O)[C@H]1O.CN[C@@H]1[C@H](O[C@H]2[C@H](O[C@H]3[C@H](O)[C@@H](O)[C@H](N=C(N)N)[C@@H](O)[C@@H]3N=C(N)N)O[C@@H](C)[C@]2(O)C=O)O[C@@H](CO)[C@H](O)[C@H]1O.O=S(=O)(O)O.O=S(=O)(O)O.O=S(=O)(O)O [STREPTOMYCIN SULFATE] |  | 4 mm | 4 mm | 4 mm |  | 4 mm |  | 4 mm | 4 mm |  |  |  |  |  |  |  |  |  | 4 mm
